Measurements published in patent US11524938B2, “Aromatic sulfonamide derivatives” (Bayer Pharma Aktiengesellschaft, priority 2016, dated 2022).

Target: T1, human P2X4 (Homo sapiens, UniProt Q99571)
T1 sequence (Q99571 1-388): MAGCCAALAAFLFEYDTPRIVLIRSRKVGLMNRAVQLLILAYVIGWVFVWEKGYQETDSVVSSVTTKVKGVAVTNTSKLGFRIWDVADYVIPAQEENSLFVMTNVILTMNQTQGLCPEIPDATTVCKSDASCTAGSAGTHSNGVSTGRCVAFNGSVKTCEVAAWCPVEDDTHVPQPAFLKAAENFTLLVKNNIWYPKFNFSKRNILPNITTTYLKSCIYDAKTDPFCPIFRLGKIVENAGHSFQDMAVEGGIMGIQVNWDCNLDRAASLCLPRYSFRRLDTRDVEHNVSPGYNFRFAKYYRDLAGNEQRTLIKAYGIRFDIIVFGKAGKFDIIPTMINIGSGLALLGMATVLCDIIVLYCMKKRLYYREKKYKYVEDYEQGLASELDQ
Experiment: Human P2X4 HEK Cell FLIPR Assay
Type: cell-based
Conditions: agonist Bz-ATP at EC80; for Emax: HEK293, HEK293 cells, read-out: Human P2X4 HEK Cells (FLIPR Assay) avg Efficacy [%]; for IC50: individual values listed where some fall outside detection range
How it was run: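 HEK293 cells stably expressing human P2X4, Fluo8-AM loaded 30 min at 37° C, then compound 30 min at room temperature (0.5% DMSO, pH 7.4 buffer with 1.8 mM CaCl2). Bz-ATP at its daily-determined EC80 added; calcium fluorescence read over 120 sec; IC50 from peak RFU normalized to agonist control, triplicates.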

[1] = percentage of maximal inhibition

Structure (SMILES)	Emax [1] [%]	IC50 (HEK293 cells) [nM]	Human P2X4 HEK Cells (FLIPR Assay) avg Efficacy [%] (HEK293 cells, percentage of maximal inhibition)
NS(=O)(=O)c1cc(NC(=O)Cc2c(Cl)cccc2C(F)(F)F)ccc1-n1cc(C(F)(F)F)cn1 [Example 134, 2-[2-Chloro-6-(trifluoromethyl)phenyl]-N-{3-sulfamoyl-4-[4-(trifluoromethyl)-1H-pyrazol-1-yl]phenyl}acetamide]	89	147	
Cc1cn(-c2ccc(NC(=O)Cc3ccccc3Cl)cc2S(N)(=O)=O)c(C)n1 [Example 47, 2-(2-Chlorophenyl)-N-[4-(2,4-dimethyl-1H-imidazol-1-yl)-3-sulfamoylphenyl]-acetamide]	66	472	
NS(=O)(=O)c1cc(NC(=O)Cc2cccc(Cl)c2)ccc1-n1cc(Cl)cn1 [Example 82, 2-(3-Chlorophenyl)-N-[4-(4-chloro-1H-pyrazol-1-yl)-3-sulfamoylphenyl]acetamide]	36	> 25000	
C[C@H]1CC[C@H](C)N1c1cnn(-c2ccc(NC(=O)Cc3ccccc3Cl)cc2S(N)(=O)=O)c1 (single isomer, unassigned) [Example 513, 2-(2-Chlorophenyl)-N-(4-{4-[(trans)-2,5-dimethylpyrrolidin-1-yl]-1H-pyrazol-1-yl}-3-sulfamoylphenyl)acetamide]		893	94
NS(=O)(=O)c1cc(NC(=O)Cc2ccc(F)cc2)ccc1-n1cc(Cl)cn1 [Example 84, N-[4-(4-Chloro-1H-pyrazol-1-yl)-3-sulfamoylphenyl]-2-(4-fluorophenyl)acetamide]	29	> 25000	
NS(=O)(=O)c1cc(NC(=O)Cc2ccccc2Cl)ccc1-c1nc(N2CCOCC2)cs1 [Example 549, 2-(2-Chlorophenyl)-N-{4-[4-(morpholin-4-yl)-1,3-thiazol-2-yl]-3-sulfamoylphenyl}acetamide]	85	8	
NS(=O)(=O)c1cc(NC(=O)Cc2ccccc2Cl)ccc1-c1cnn(C2CCOC2)c1 (centres unmarked) [Example 300, 2-(2-Chlorophenyl)-N-{3-sulfamoyl-4-[1-(tetrahydrofuran-3-yl)-1H-pyrazol-4-yl]phenyl}acetamide]	100	27	
Cc1ccc(CC(=O)Nc2ccc(-n3cc(C#N)cn3)c(S(N)(=O)=O)c2)cc1 [Example 195, N-[4-(4-Cyano-1H-pyrazol-1-yl)-3-sulfamoylphenyl]-2-(4-methylphenyl)acetamide]	68	86	
N#Cc1cnn(-c2ccc(NC(=O)Cc3cc(O)ccc3Cl)cc2S(N)(=O)=O)c1 [Example 556, 2-(2-Chloro-5-hydroxyphenyl)-N-[4-(4-cyano-1H-pyrazol-1-yl)-3-sulfamoylphenyl]acetamide]	94	65	
Cc1nn(-c2ccc(NC(=O)Cc3ccccc3Cl)cc2S(N)(=O)=O)c(C)c1Cl [Example 543, N-[4-(4-Chloro-3,5-dimethyl-1H-pyrazol-1-yl)-3-sulfamoylphenyl]-2-(2-chlorophenyl)acetamide]	98	267	
NS(=O)(=O)c1cc(NC(=O)Cc2ccccc2F)cnc1-n1cc(Br)cn1 [Example 386, N-[6-(4-Bromo-1H-pyrazol-1-yl)-5-sulfamoylpyridin-3-yl]-2-(2-fluorophenyl)acetamide]	64	76	
NS(=O)(=O)c1cc(NC(=O)Cc2ccc(O)cc2)ccc1-n1cc(Cl)cn1 [Example 86, N-[4-(4-Chloro-1H-pyrazol-1-yl)-3-sulfamoylphenyl]-2-(4-hydroxyphenyl)acetamide]	97	353	
COc1cnn(-c2ccc(NC(=O)Cc3ccccc3Cl)cc2S(N)(=O)=O)c1 [Example 31, 2-(2-Chlorophenyl)-N-[4-(4-methoxy-1H-pyrazol-1-yl)-3-sulfamoylphenyl]acetamide]	81	112	
NS(=O)(=O)c1cc(NC(=O)Cc2ccncc2Cl)ccc1-n1cnc(C(F)(F)F)n1 [Example 59, 2-(3-Chloropyridin-4-yl)-N-{3-sulfamoyl-4-[3-(trifluoromethyl)-1H-1,2,4-triazol-1-yl]phenyl}acetamide]	73	4650	
NS(=O)(=O)c1cc(NC(=O)Cc2ccc(F)cc2)ccc1-c1cnn(C(F)F)c1 [Example 227, N-{4-[1-(Difluoromethyl)-1H-pyrazol-4-yl]-3-sulfamoylphenyl}-2-(4-fluorophenyl)-acetamide]	95	404	
NS(=O)(=O)c1cc(NC(=O)Cc2ccccc2Cl)ccc1-c1cnc(C2CC2)nc1 [Example 308, 2-(2-Chlorophenyl)-N-[4-(2-cyclopropylpyrimidin-5-yl)-3-sulfamoylphenyl]acetamide]	91	64	
NS(=O)(=O)c1cc(NC(=O)Cc2ccc(C(F)F)cc2)ccc1-n1cc(Cl)cn1 [Example 107, N-[4-(4-Chloro-1H-pyrazol-1-yl)-3-sulfamoylphenyl]-2-[4-(difluoromethyl)-phenyl]acetamide]	44	> 25000	
NS(=O)(=O)c1cc(NC(=O)Cc2cccc(Cl)c2)ccc1-n1cc(F)cn1 [Example 148, 2-(3-Chlorophenyl)-N-[4-(4-fluoro-1H-pyrazol-1-yl)-3-sulfamoylphenyl]acetamide]	63	132	
COc1cnc(Cl)c(-c2ccc(NC(=O)Cc3ccccc3Cl)cc2S(N)(=O)=O)c1 [Example 290, N-[4-(2-Chloro-5-methoxypyridin-3-yl)-3-sulfamoylphenyl]-2-(2-chlorophenyl)acetamide]	81	36	
Cc1nc(C(F)(F)F)nn1-c1ccc(NC(=O)Cc2ccccc2Cl)cc1S(N)(=O)=O [Example 8, 2-(2-Chlorophenyl)-N-{4-[5-methyl-3-(trifluoromethyl)-1H-1,2,4-triazol-1-yl]-3-sulfamoylphenyl}acetamide]	79	2560	
Cc1cc(F)c(Br)cc1CC(=O)Nc1ccc(-n2cc(Cl)cn2)c(S(N)(=O)=O)c1 [Example 104, 2-(5-Bromo-4-fluoro-2-methylphenyl)-N-[4-(4-chloro-1H-pyrazol-1-yl)-3-sulfamoyl-phenyl]acetamide]	95	2230	
NS(=O)(=O)c1cc(NC(=O)Cc2ccccc2Cl)ccc1-c1ccccc1 [Example 266, 2-(2-Chlorophenyl)-N-(2-sulfamoylbiphenyl-4-yl)acetamide]	94	7	
NS(=O)(=O)c1cc(NC(=O)Cc2cccc(C(F)(F)F)c2Cl)ccc1-n1cc(C(F)(F)F)cn1 [Example 131, 2-[2-Chloro-3-(trifluoromethyl)phenyl]-N-{3-sulfamoyl-4-[4-(trifluoromethyl)-1H-pyrazol-1-yl]phenyl}acetamide]	58	155	
NS(=O)(=O)c1cc(NC(=O)Cc2ccccc2Cl)ccc1-n1ccnc1 [Example 9, 2-(2-Chlorophenyl)-N-[4-(1H-imidazol-1-yl)-3-sulfamoylphenyl]acetamide]	83	7	
Cc1ccccc1CC(=O)Nc1ccc(-c2cnn(C(F)F)c2)c(S(N)(=O)=O)c1 [Example 223, N-{4-[1-(Difluoromethyl)-1H-pyrazol-4-yl]-3-sulfamoylphenyl}-2-(2-methylphenyl)-acetamide]	87	26	
